# Measurements as given in US9815840B2 (CJ Healthcare Corporation, priority 2013, dated 2017).
# Molecular target: c-Met (Homo sapiens (Human), UniProt P08581)
# Assay: Analysis of the inhibition of c-Met activity (ADP-Glo Kinase Assay)
# Type: biochemical
# Conditions: c-Met enzyme 2 ng/μL, 250 μM G4Y1 peptide, 50 μM ATP, 1 hour at room temperature, luminescence
# Description: Analysis of the Inhibition of c-Met Activity (ADP-Glo™ Kinase Assay
# The inhibitory effect of the compounds of the present invention on the activity of c-Met was confirmed as follows.
# Specifically, 250 μM G4Y1 peptide, which serves as a substrate for c-Met enzyme (2 ng/μL), and 50 μM ATP were subjected to an enzyme reaction in a reaction buffer (40 mM Tris-HCl (pH 7.5), 20 mM MgCl2, 0.1 mg/mL bovine serum albumin, and 50 μM DTT). The compounds prepared in Examples and comparative compounds were treated at various concentrations and reacted at room temperature for 1 hour, sequentially added with ADP-Glo™ Reagent and the Kinase detection reagent, and reacted at room temperature for 40 minutes and 30 minutes, respectively.
# Then, luminescence of the compounds was measured using the Wallaac Victor 2™ (PerkinElmer life sciences, 1420-042). The activity of c-Met inhibitors was evaluated by analyzing the data based on the measured RLU values. The activity of c-Met inhibitors was evaluated as the percentage of remaining activity of the c-Met enzyme in the samples treated with the compounds at concentrations to be tested, with the RLU value of the sample set at 100% control group.
# c-Met, sequence (P08581 25-1390): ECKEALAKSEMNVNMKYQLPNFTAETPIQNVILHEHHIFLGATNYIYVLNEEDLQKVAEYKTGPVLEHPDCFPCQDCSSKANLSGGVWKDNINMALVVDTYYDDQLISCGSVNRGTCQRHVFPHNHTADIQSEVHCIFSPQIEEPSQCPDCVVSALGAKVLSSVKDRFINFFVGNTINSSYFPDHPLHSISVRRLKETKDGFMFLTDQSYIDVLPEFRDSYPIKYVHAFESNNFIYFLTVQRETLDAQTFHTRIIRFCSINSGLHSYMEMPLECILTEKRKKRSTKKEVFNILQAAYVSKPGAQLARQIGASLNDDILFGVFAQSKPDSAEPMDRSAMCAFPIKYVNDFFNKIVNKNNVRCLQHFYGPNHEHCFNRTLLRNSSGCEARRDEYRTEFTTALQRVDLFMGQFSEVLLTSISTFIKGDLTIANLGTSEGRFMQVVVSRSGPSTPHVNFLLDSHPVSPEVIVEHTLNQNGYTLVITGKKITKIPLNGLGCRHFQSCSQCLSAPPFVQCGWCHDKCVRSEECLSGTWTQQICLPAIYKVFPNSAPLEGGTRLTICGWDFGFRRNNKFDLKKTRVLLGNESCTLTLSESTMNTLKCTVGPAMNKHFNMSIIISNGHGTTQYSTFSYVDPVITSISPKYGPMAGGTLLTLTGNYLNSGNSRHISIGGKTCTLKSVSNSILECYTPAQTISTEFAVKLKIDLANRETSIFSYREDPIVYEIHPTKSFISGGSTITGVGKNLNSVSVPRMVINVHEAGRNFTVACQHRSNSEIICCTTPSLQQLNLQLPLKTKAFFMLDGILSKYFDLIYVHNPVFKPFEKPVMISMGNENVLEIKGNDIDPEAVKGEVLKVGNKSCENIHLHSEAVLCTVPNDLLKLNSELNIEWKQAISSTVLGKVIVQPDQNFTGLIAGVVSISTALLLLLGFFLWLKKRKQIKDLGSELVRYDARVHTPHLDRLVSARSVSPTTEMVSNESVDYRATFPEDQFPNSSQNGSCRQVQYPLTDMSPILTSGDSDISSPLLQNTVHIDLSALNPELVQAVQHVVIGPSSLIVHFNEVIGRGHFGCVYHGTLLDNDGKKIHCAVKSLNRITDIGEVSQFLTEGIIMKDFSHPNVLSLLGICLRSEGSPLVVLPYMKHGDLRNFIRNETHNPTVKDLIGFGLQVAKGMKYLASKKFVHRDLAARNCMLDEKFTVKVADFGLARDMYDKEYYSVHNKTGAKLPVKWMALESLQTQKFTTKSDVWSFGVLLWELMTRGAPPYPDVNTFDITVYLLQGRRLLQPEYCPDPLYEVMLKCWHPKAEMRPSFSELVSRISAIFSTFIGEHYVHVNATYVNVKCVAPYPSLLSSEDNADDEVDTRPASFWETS
row,Compound,IC50 [nM]
1,"CCOc1ccn(-c2ccc(F)cc2)c(=O)c1C(=O)Nc1ccc(Oc2ccnn3ccc(-c4cccc(C(C)(C)O)c4)c23)c(F)c1 [Example 43, 4-ethoxy-N-(3-fluoro-4-((5-(3-(2-hydroxypropan-2-yl)phenyl)pyrrolo[1,2-b]pyridazin-4-yl)oxy)phenyl)-1-(4-fluorophenyl)-2-oxo-1,2-dihydropyridin-3-carboxamide]",< 40
2,"CCOc1ccn(-c2ccc(F)cc2)c(=O)c1C(=O)Nc1ccc(Oc2ccnn3ccc(-c4cccc(N)c4)c23)c(F)c1 [Example 53, 4-ethoxy-N-(3-fluoro-4-((5-(3-aminophenyl)pyrrolo[1,2-b]pyridazin-4-yl)oxy)phenyl)-1-(4-fluorophenyl)-2-oxo-1,2-dihydropyridin-3-carboxamide]",< 40
3,Cc1ccc(-c2ccn3nccc(Oc4ccc(NC(=O)C5(C(=O)Nc6ccc(F)cc6)CC5)cc4F)c23)cc1N [Example 78],< 40
4,"CCOc1ccn(-c2ccc(F)cc2)c(=O)c1C(=O)Nc1ccc(Oc2ccnn3ccc(-c4cccc(CN(C)C)c4)c23)c(F)c1 [Example 56, N-(4-((5-(3-((dimethylamino)methyl)phenyl)pyrrolo[1,2-b]pyridazin-4-yl)oxy)-3-fluorophenyl)-4-ethoxy-1-(4-fluorophenyl)-2-oxo-1,2-dihydropyridin-3-carboxamide]",< 40
5,"CCOc1ccn(-c2ccc(F)cc2)c(=O)c1C(=O)Nc1ccc(Oc2ccnn3ccc(-c4cccc(C(C)O)c4)c23)c(F)c1 (centres unmarked) [Example 46, 4-ethoxy-N-(3-fluoro-4-((5-(3-(1-hydroxyethyl)phenyl)pyrrolo[1,2-b]pyridazin-4-yl)oxy)phenyl)-1-(4-fluorophenyl)-2-oxo-1,2-dihydropyridin-3-carboxamide]",< 40
6,CCOc1ccn(-c2ccc(F)cc2)c(=O)c1C(=O)Nc1ccc(Oc2ccnn3ccc(-c4ccncc4)c23)c(F)c1 [Example 7],< 40
7,"CC(O)c1cccc(-c2ccn3nccc(Oc4ccc(NC(=O)c5cccn(-c6ccc(F)cc6)c5=O)cc4F)c23)c1 (centres unmarked) [Example 47, N-(3-fluoro-4-((5-(3-(1-hydroxyethyl)phenyl)pyrrolo[1,2-b]pyridazin-4-yl)oxy)phenyl)-1-(4-fluorophenyl)-2-oxo-1,2-dihydropyridin-3-carboxamide]",< 40
8,CCOc1ccn(-c2ccc(F)cc2)c(=O)c1C(=O)Nc1ccc(Oc2ccnn3ccc(-c4cccc(CN5CCOCC5)c4)c23)c(F)c1 [Example 49],< 40
9,O=C(Nc1ccc(Oc2ccnn3ccc(-c4cccc(CO)c4)c23)c(F)c1)c1cccn(-c2ccc(F)cc2)c1=O [Example 29],< 40
10,Nc1ccc(F)c(-c2ccn3nccc(Oc4ccc(NC(=O)C5(C(=O)Nc6ccc(F)cc6)CC5)cc4F)c23)c1 [Example 83],< 40
11,COc1ccc(-c2ccn3nccc(Oc4ccc(NC(=O)C5(C(=O)Nc6ccc(F)cc6)CC5)cc4F)c23)cc1N [Example 82],< 40
12,"CCOc1ccn(-c2ccc(F)cc2)c(=O)c1C(=O)Nc1ccc(Oc2ccnn3ccc(-c4cccc(C(=O)N5CCOCC5)c4)c23)c(F)c1 [Example 50, 4-ethoxy-N-(3-fluoro-4-((5-(3-morpholin-4-carbonylphenyl)pyrrolo[1,2-b]pyridazin-4-yl)oxy)phenyl)-1-(4-fluorophenyl)-2-oxo-1,2-dihydropyridin-3-carboxamide]",< 40
13,Cc1c(N)cccc1-c1ccn2nccc(Oc3ccc(NC(=O)C4(C(=O)Nc5ccc(F)cc5)CC4)cc3F)c12 [Example 79],< 40
14,"CCOc1ccn(-c2ccc(F)cc2)c(=O)c1C(=O)Nc1ccc(Oc2ccnn3ccc(-c4cccc(C=O)c4)c23)c(F)c1 [Example 23, 4-ethoxy-N-(3-fluoro-4-((5-(3-formylphenyl)pyrrolo[1,2-b]pyridazin-4-yl)oxy)phenyl)-1-(4-fluorophenyl)-2-oxo-1,2-dihydropyridin-3-carboxamide]",< 40
